Measurements taken from the NIST ThermoML archive (doi:10.1021/acs.jced.7b00494).

Assay: mn = molality of the nth substance listed, in mol/kg
Conditions: 99.6 kPa, Liquid; for kinematic viscosity: Capillary tube (Ostwald / Ubbelohde) method; for mass density: Vibrating tube method

CNC(C)=O [N-methylacetamide] + [Ca+2].[Cl-].[Cl-]
Conditions	kinematic viscosity, 308.15 K [m2/s]	kinematic viscosity, 313.15 K [m2/s]	kinematic viscosity, 318.15 K [m2/s]	mass density, 308.15 K [kg/m3]	mass density, 313.15 K [kg/m3]
m2 = 0	3.79e-06	3.35e-06	2.99e-06	945.85	941.63
m2 = 0.00398	3.81e-06	3.38e-06	3.02e-06	946.1	941.91
m2 = 0.01042	3.83e-06	3.41e-06	3.04e-06	946.61	942.38
m2 = 0.04232	4.04e-06	3.59e-06	3.19e-06	948.77	944.56
m2 = 0.05605	4.13e-06	3.67e-06	3.25e-06	949.67	945.49
m2 = 0.08536	4.34e-06	3.83e-06	3.4e-06	951.77	947.59
m2 = 0.1022	4.47e-06	3.95e-06	3.49e-06	953.01	948.87
m2 = 0.1314	4.7e-06	4.15e-06	3.67e-06	954.97	950.79
m2 = 0.1539	4.89e-06	4.31e-06	3.8e-06	956.57	952.41
m2 = 0.1613	4.95e-06	4.35e-06	3.85e-06	957.09	952.96
m2 = 0.1719	5.03e-06	4.42e-06	3.9e-06	957.84	953.69
m2 = 0.1998	5.26e-06	4.63e-06	4.08e-06	959.8	955.68
m2 = 0.2219	5.46e-06	4.8e-06	4.24e-06	961.27	957.26
m2 = 0.2578	5.79e-06	5.1e-06	4.5e-06	964	959.75
m2 = 0.3546	6.92e-06	6.01e-06	5.32e-06	970.82	966.61
